Laboratory results taken from patent publication US5776949A, “2-(1H) quinolinone compounds” (Adir et Compagnie, priority 1997, dated 1998).

Legend:
[1] = test system: glutamate-dependent convulsive attacks; assay: Anti-convulsant activity in vivo: convulsions triggered by sound stimulus in DBA2 mice
Text: Likewise, in the DBA2 mice, glutamate-dependent convulsive attacks may be triggered by subjecting the animals to a sound stimulus of high frequency (14 kHz, 103 dB). The anticonvulsion effects are objectivated by the capacity to prevent convulsions arrival and the death which follows.

[2] = test system: cerebral infarct; assay: Antineurodegenerative activity in vivo: occlusion of the middle cerebral artery (MCA), infarct volume; conditions: rats; for reduction of cortical edematous infarct volume: 20 mg/kg i.v., 1 hour after arterial occlusion
Protocol: The occlusion of the sylvian artery (or middle cerebral artery MCA) is at the origin of about 70% of cases of cerebral vascular accidents in man. This type of cerebral ischemia may be reproduced very precisely in rats by intracerebral ligature of the MCA. This definitive occlusion causes, within 24 hours, the formation of a striatocortical infarct of identical location to that observed in a clinical situation. The infarct is perfectly delimited and is therefore histologically measurable. This infarct is of the edematous type. It changes within the following 3 days into a definitive necrotic infarct. The excessive liberation of glutamate is a major pathological feature for the genesis of the cerebral infarct. An antiischemic neuroprotective compound should prevent the formation of this infarct at 24 hours and on its necrotic maturation at 96 hours.
The compounds of the invention are compounds with a potent antiischemic effect, even during post-ischemic delayed treatment (treatment by the i.v. route 1 hour after the arterial occlusion). […] This is a major activity since it also prevents necrotic maturation. Thus, when a 3-day follow-up treatment (10 mg/kg i.p. twice per day) is carried out after the initial i.v. injection (20 mg/kg), the compound of Example 1decreases the volume of the terminal infarct by 44%.

[3] = test system: AMPA receptor; assay: AMPA-induced currents in Xenopus oocytes injected with rat cerebral cortex poly(A+) mRNA (2-electrode voltage-clamp); type: cell-based
Protocol: (§1) Their efficacy may be studied by means of electrophysiological techniques in vitro and especially by means of the measurement of the currents induced by the glutamatergic agonists in the oocyte of Xenopus.
(§2) Xenopus oocytes are injected with 50 ng of poly(A^+) mRNA isolated from rat cerebral cortex and incubated for 2 to 3 days at 18° C. so as to allow the protein expression thereof. The inflow of currents induced by the EAAs are measured in a medium of composition: NaCl (82.5 mM), KCl (2.5 mM), CaCl2 (1 mM), MgCl2 (1 mM), NaH2 PO4 (1 mM), HEPES (5 mM), pH 7.4 by the 2 electrode Voltage-clamp method (voltage=-60 mV). To measure the currents induced by NMDA and glycine, MgCl2 is absent from the medium and CaCl2 is supplied at the concentration of 2 mM. The EAA agonists inducing the currents are used at the following concentrations: kainate: 100 μM; AMPA: 30 μM; glycine/NMDA: 3/30 μM. The product studied is applied 30 seconds before and during the application of the agonist.

[4] = test system: NMDA receptor; assay: glycine/NMDA-induced currents in Xenopus oocytes injected with rat cerebral cortex poly(A+) mRNA (2-electrode voltage-clamp); type: cell-based; conditions: glycine/NMDA 3/30 μM; MgCl2 absent, CaCl2 2 mM; product applied 30 seconds before and during agonist
Protocol: as §1, §2

[5] = Solubility in water

SMILES	inhibition of mortality ([1]; 50 mg/kg i.p., 30 minutes before sound stimulus)	ED50 ([1]; Mus musculus, ip, 0.5 h, i.p. 30 minutes before sound stimulus (14 kHz, 103 dB), read-out: ED50 (anticonvulsant protection)) [mg/kg]	anticonvulsant effects (in words) ([1]; i.p. 30 minutes before sound stimulus)	decrease of the volume of the terminal infarct ([2]; 20 mg/kg i.v. then 3-day follow-up 10 mg/kg i.p. twice per day) [%]	reduction of cortical edematous infarct volume [2] [%]	IC50 ([3]; AMPA 30 μM, voltage -60 mV, product applied 30 seconds before and during agonist) [µM]	selectivity for the AMPA receptor ([3]; AMPA versus NMDA, Xenopus oocytes) [times]	IC50 [4] [µM]	solubility in water (in words) [5]
O=c1[nH]c2cc([N+](=O)[O-])ccc2cc1S(=O)(=O)O [Example 1, 7-Nitro-2-(1H)-quinolinone-3-sulfonic acid]	more than 80%	26.9	strongly protects the animals	44	45				
O=c1[nH]c2cc([N+](=O)[O-])c([N+](=O)[O-])cc2cc1S(=O)(=O)O [Example 2, 6,7-Dinitro-2-(1H)-quinolinone-3-sulfonic acid]					27	0.2	40	8	soluble in water
